Laboratory results from patent publication US9090667B2, “Cyclic peptide from Nonomuraea sp., process for the production thereof, and pharmaceutical composition for the prevention or treatment of mycobacteria related disease comprising the same” (priority 2011, dated 2015).
In brackets after ≈: the same amount, converted by molar mass. Numbered stars: 1 amine (or outer) side, 2 acyl side, 3 side chain; on linkers, the order of the positions; unused ones are H or OH. Bridge positions count the residues as written; N and C are the ends. Square brackets hold non-standard residues; d marks the D form. Peptide text beside a SMILES is read from it. * marks the point of attachment. ξ: configuration not given here. NMeTrp(4-OMe) = CN[CH](Cc1c[nH]c2cccc(OC)c12)C(=O)O; X1 = O=C(C(N[*:1])C(O)c1ccccc1)[*:2]; NMeI = CC[CH](C)[CH](NC)C(=O)O; ξNMe2Val = CC(C)C(C(=O)*)N(C)C; NMeT = CN[CH](C(=O)O)[CH](C)O; NMeL = CN[CH](CC(C)C)C(=O)O; NMeV = CN[CH](C(=O)O)C(C)C

What was measured:
[1] = test system: M. tuberculosis strain resistant to isoniazid (INH)
[2] = test system: M. tuberculosis strain resistant to kanamycin (KM)
[3] = test system: M. tuberculosis strain resistant to streptomycin (SM)
[4] = test system: M. tuberculosis strain resistant to capreomycin (CAP)
[5] = test system: M. tuberculosis strain resistant to rifampin (RMP)
[6] = test system: M. tuberculosis strain resistant to moxifloxacin (Mox)
[7] = test system: M. tuberculosis strain resistant to cycloserine (CS)

## CCC(C)C(C(=O)NC1C(=O)N(C)C(C(C)O)C(=O)NC(C(C)C)C(=O)N(C)C(CC(C)C)C(=O)NC(C(C)C)C(=O)N(C)C(C(C)C)C(=O)N(C)C(Cc2c[nH]c3cccc(OC)c23)C(=O)NC(C(C)C)C(=O)NC(Cc2ccccc2)C(=O)NC(C(C)C)C(=O)OC1C)N(C)C(=O)C(NC(=O)C(C(C)C)N(C)C)C(C)C (centres unmarked) [H-16] (ξNMe2Val-V[NMeI]T[NMeT]V[NMeL]V[NMeV][NMeTrp(4-OMe)]VFV; ester 3-C; configuration not given here)
[1]
  MIC: <0.12 µM
[2]
  MIC: <0.12 µM
[3]
  MIC: <0.12 µM
[4]
  MIC: 0.3 µM (≈ 0.475 µg/mL)
[5]
  MIC: 0.18 µM (≈ 0.285 µg/mL)
[6]
  MIC: 0.3 µM (≈ 0.475 µg/mL)
[7]
  MIC: <0.12 µM

## CCC(C)C(C(=O)NC1C(=O)N(C)C(C(C)O)C(=O)NC(C(C)C)C(=O)N(C)C(CC(C)C)C(=O)NC(C(C)C)C(=O)N(C)C(C(C)C)C(=O)N(C)C(Cc2c[nH]c3cccc(OC)c23)C(=O)NC(C(C)C)C(=O)NC(C(O)c2ccccc2)C(=O)NC(C(C)C)C(=O)OC1C)N(C)C(=O)C(NC(=O)C(C(C)C)N(C)C)C(C)C (centres unmarked) [H-14] (ξNMe2Val-V[NMeI]T[NMeT]V[NMeL]V[NMeV][NMeTrp(4-OMe)]V[X1]V; ester 3-C; configuration not given here)
[1]
  MIC: <0.12 µM
[2]
  MIC: <0.12 µM
[3]
  MIC: <0.12 µM
[4]
  MIC: 0.29 µM (≈ 0.464 µg/mL)
[5]
  MIC: 0.19 µM (≈ 0.304 µg/mL)
[6]
  MIC: 0.31 µM (≈ 0.496 µg/mL)
[7]
  MIC: <0.12 µM
